Laboratory results taken from patent US6127397A, “Optically active (R)-(E)-(4-substituted-phenyl-1,3-dithiolan-2-ylidene)-1-imidazolylaceto nitrile derivative, antifungal composition comprising the same, and method for producing the same” (Nihon Nohyaku Co., Ltd., priority 1996, dated 2000).
In brackets after ≈: the same amount, converted by molar mass. Where two headings read alike, the source gives them in different places.

Columns and labels:
Assay in all cases: In vitro antifungal activity (MIC), SGA agar plate, 27° C., 7 days
[1] = tested on: Trichophyton mentagrophytes IFO 5811; assay type: cell-based; conditions: for MIC: Trichophyton mentagrophytes, IFO5811, 168 h, T. mentagrophytes IFO 5811, read-out: MIC value against Trichophyton
Experimental: (§1) In vitro antifungal activity of compounds against dormatophytes
Trichophyton mentagrophytes IFO 5811
(§2) Preparation of inoculation fungal solution:
(§3) To a strain cultured on Sabouraud's glucose agar (SGA) slant medium at 27° C. for 1 to 2 weeks was added 0.1% (v/v) Tween 80-added sterilized physiological saline solution, followed by rubbing with a platinum spatula. The resulting suspension of conidia was filtered through a sterilized gauze to eliminate mycelium mass. Thereafter, the conidia was counted by an erythrocytometer (Thoma) The suspension of the conidia was diluted with 0.1% (v/v) Tween 80-added sterilized physiological saline solution so as to have a concentration of 1×10^6 conidia/ml to obtain an inoculation fungal solution.
(§4) Each compound was dissolved into dimethyl sulfoxide (DMSO) to prepare a diluent having a […]. The concentration of DMSO in a medium was adjusted to hair 1% (v/v).
(§5) Measurement of antifungal activity:
(§6) A SGA plate medium containing a given amount of a compound (20 ml/dish) was prepared. A loopful of the inoculation fungal solution was applied in the form of a line to each plate medium at a length of about 15 mm, and was allowed to stand for cultivation at 27° C. for 7 days. The minimum inhibitory concentration (MIC) of the compound at which a growth of a microorganism cannot be visually recognized was determined.

[2] = tested on: Trichophyton mentagrophytes TIMM 2789; assay type: cell-based; conditions: for MIC: Trichophyton mentagrophytes, TIMM2789, 168 h, T. mentagrophytes TIMM 2789, read-out: MIC value against Trichophyton
Experimental: as §1
Trichophyton mentagrophytes TIMM 2789
as §2, §3, §4, §5, §6

[3] = tested on: Trichophyton rubrum IFO 6204; assay type: cell-based; conditions: for MIC: Trichophyton rubrum, IFO6204, 168 h, T. rubrum IFO 6204, read-out: MIC value against Trichophyton
Experimental: as §1
Trichophyton rubrunm IFO 6204
as §2, §3, §4, §5, §6

T. rubrum IFO 5805 = assay type: cell-based, Trichophyton rubrum; conditions: for MIC: Trichophyton rubrum, IFO5805, 168 h, read-out: MIC value against Trichophyton

SMILES	MIC value against Trichophyton ([1]; T. mentagrophytes IFO 5811) [µg/mL]	MIC [1] [µg/mL]	MIC value against Trichophyton ([2]; T. mentagrophytes TIMM 2789) [µg/mL]	MIC [2] [µg/mL]	MIC value against Trichophyton ([3]; T. rubrum IFO 6204) [µg/mL]	MIC [3] [µg/mL]	MIC value against Trichophyton (T. rubrum IFO 5805) [µg/mL]	MIC (T. rubrum IFO 5805) [µg/mL]	MIC value against Trichophyton ([3]; T. rubrum IFO 6204, listed as 2') [µg/mL]	MIC value against Trichophyton ([2]; T. mentagrophytes TIMM 2789, listed as 6') [µg/mL]	MIC value against Trichophyton ([1]; T. mentagrophytes IFO 5811, listed as 8') [µg/mL]	MIC value against Trichophyton (T. rubrum IFO 5805; listed as 8') [µg/mL]	MIC value against Trichophyton ([1]; T. mentagrophytes IFO 5811, listed as 12') [µg/mL]
N#C/C(=C1/SC[C@@H](c2ccc(F)cc2)S1)n1ccnc1 [Compound No. 1, (R)-(E)-[4-(4-fluorophenyl)-1,3-dithicolan-2-ylidene]-1-imidazolylacetonitrile]	> 0.64	0.64 (≈ 2.11 µM)	0.64 (≈ 2.11 µM)	0.32 (≈ 1.05 µM)	0.32 (≈ 1.05 µM)	0.16 (≈ 0.527 µM)	0.64 (≈ 2.11 µM)	0.32 (≈ 1.05 µM)					
N#C/C(=C1/SC[C@@H](c2cccc(Cl)c2)S1)n1ccnc1 [Compound No. 2]	> 0.64	0.64 (≈ 2 µM)	> 0.64	0.32 (≈ 1 µM)	0.16 (≈ 0.5 µM)		> 0.64	0.64 (≈ 2 µM)	0.64 (≈ 2 µM)				
N#C/C(=C1/SC[C@@H](c2ccc(Br)cc2)S1)n1ccnc1 [compound 3]		> 0.08		> 0.08	> 0.08	0.08 (≈ 0.22 µM)		> 0.08					
N#C/C(=C1/SC[C@@H](c2ccc(Cl)cc2)S1)n1ccnc1 [compound 4]		> 0.08		> 0.08	> 0.08	0.08 (≈ 0.25 µM)		> 0.08					
N#C/C(=C1/SC[C@@H](c2ccccc2F)S1)n1ccnc1 [compound 5]	0.16 (≈ 0.527 µM)	0.08 (≈ 0.264 µM)	0.04 (≈ 0.132 µM)	0.02 (≈ 0.0659 µM)		0.01 (≈ 0.033 µM)		0.04 (≈ 0.132 µM)					
Cc1ccccc1[C@@H]1CS/C(=C(/C#N)n2ccnc2)S1 [compound 6]		0.32 (≈ 1.07 µM)	0.08 (≈ 0.267 µM)			0.08 (≈ 0.267 µM)	0.32 (≈ 1.07 µM)	0.16 (≈ 0.534 µM)		0.32 (≈ 1.07 µM)			
N#C/C(=C1/SC[C@@H](c2ccc(F)cc2F)S1)n1ccnc1 [compound 7]	0.32 (≈ 0.996 µM)	0.16 (≈ 0.498 µM)	0.08 (≈ 0.249 µM)	0.04 (≈ 0.124 µM)	0.04 (≈ 0.124 µM)	0.02 (≈ 0.0622 µM)	0.16 (≈ 0.498 µM)	0.08 (≈ 0.249 µM)					
N#C/C(=C1/SC[C@@H](c2ccccc2Br)S1)n1ccnc1 [compound 8]	0.04 (≈ 0.11 µM)		0.04 (≈ 0.11 µM)	0.02 (≈ 0.0549 µM)	0.02 (≈ 0.0549 µM)	0.01 (≈ 0.0275 µM)	0.01 (≈ 0.0275 µM)				0.16 (≈ 0.439 µM)	0.04 (≈ 0.11 µM)	
N#C/C(=C1/SC[C@@H](c2ccccc2OC(F)F)S1)n1ccnc1 [compound 9]	2.56 (≈ 7.29 µM)	1.28 (≈ 3.64 µM)	1.28 (≈ 3.64 µM)	0.64 (≈ 1.82 µM)	0.64 (≈ 1.82 µM)	0.32 (≈ 0.911 µM)	0.64 (≈ 1.82 µM)	0.32 (≈ 0.911 µM)					
N#C/C(=C1/SC[C@@H](c2ccccc2C(F)(F)F)S1)n1ccnc1 [compound 10]	0.64 (≈ 1.81 µM)	0.32 (≈ 0.906 µM)	0.32 (≈ 0.906 µM)	0.16 (≈ 0.453 µM)	0.08 (≈ 0.226 µM)	0.04 (≈ 0.113 µM)	0.08 (≈ 0.226 µM)	0.04 (≈ 0.113 µM)					
N#C/C(=C1/SC[C@@H](c2ccc(Br)cc2Br)S1)n1ccnc1 [compound 11]		0.04 (≈ 0.0903 µM)		0.02 (≈ 0.0451 µM)	0.02 (≈ 0.0451 µM)	0.01 (≈ 0.0226 µM)	0.04 (≈ 0.0903 µM)	0.02 (≈ 0.0451 µM)					
N#C/C(=C1/SC[C@@H](c2ccc(F)cc2Cl)S1)n1ccnc1 [compound 12]	0.04 (≈ 0.118 µM)		0.04 (≈ 0.118 µM)	0.02 (≈ 0.0592 µM)	0.04 (≈ 0.118 µM)	0.02 (≈ 0.0592 µM)	0.04 (≈ 0.118 µM)	0.02 (≈ 0.0592 µM)					0.16 (≈ 0.474 µM)
N#C/C(=C1/SC[C@@H](c2ccc(Br)cc2Cl)S1)n1ccnc1 [compound 13, (R)-(E)-[4-(2-chloro-4-bromophenyl) -1,3-dithiolan-2-ylidene]-1-imidazolylacetonitrile]	0.04 (≈ 0.1 µM)	0.02 (≈ 0.0502 µM)	0.02 (≈ 0.0502 µM)	0.01 (≈ 0.0251 µM)	0.02 (≈ 0.0502 µM)	0.01 (≈ 0.0251 µM)	0.02 (≈ 0.0502 µM)	0.01 (≈ 0.0251 µM)					
